For 25 compounds, EC50 and Emax results are on record in patent publication US20230000842A1, “METHODS OF TREATING CARTILAGE DISORDERS THROUGH INHIBITION OF CLK AND DYRK” (SAMUMED, LLC, priority 2019, published 2023).

Like-named read-outs stand apart in the source and are kept apart here. Where only a bound is given, the exact number is not on record here.

One experiment has as its target CLK2 kinase (Homo sapiens, UniProt P49760). The experiment in a line: CLK2 kinase activity assay (Z-lyte FRET).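 Note: FRET read-out as coumarin to fluorescein emission ratio, unphosphorylated peptide as 0% and phosphorylated peptide as 100% controls, duplicate reactions, non-linear regression fit of dose-response curves.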 It counts as biochemical. Conditions: Z-lyte Ser/Thr 6 peptide, 60 μM ATP, 1 h at room temperature.
The next experiment deals with CLK3 kinase (Homo sapiens, UniProt P49761). The experiment in a line: CLK3 kinase activity assay (Z-lyte FRET).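 Note: kinase activity read as coumarin/fluorescein emission ratio by FRET, unphosphorylated peptide as 0% and phosphorylated peptide as 100% control, values from non-linear regression of dose-response curves.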 The class given is biochemical. To be noted: Z-lyte Ser/Thr 18 peptide, 156 μM ATP, 1 h at room temperature.
CLK3 kinase, sequence (P49761 whole entry): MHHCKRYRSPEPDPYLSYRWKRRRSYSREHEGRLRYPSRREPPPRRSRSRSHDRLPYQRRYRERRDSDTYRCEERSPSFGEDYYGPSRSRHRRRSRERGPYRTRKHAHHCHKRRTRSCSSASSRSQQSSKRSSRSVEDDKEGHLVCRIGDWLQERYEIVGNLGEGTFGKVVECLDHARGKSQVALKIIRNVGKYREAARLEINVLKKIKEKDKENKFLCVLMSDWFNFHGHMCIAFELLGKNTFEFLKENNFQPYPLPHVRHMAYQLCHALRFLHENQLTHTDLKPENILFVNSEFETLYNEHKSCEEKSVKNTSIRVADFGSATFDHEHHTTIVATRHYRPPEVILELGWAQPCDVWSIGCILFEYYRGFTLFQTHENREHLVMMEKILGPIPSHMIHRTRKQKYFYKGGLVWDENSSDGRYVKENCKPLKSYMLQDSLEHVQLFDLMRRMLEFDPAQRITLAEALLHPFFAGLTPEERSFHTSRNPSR
Experiment [1] relates to Wnt pathway activity (SW480 colon carcinoma cells stably expressing the Sp5-Luc reporter). The experiment in a line: Wnt pathway activity screening assay (Sp5-Luc reporter gene assay). Conditions: Homo sapiens, SW480, Table 4; SW480 cells stably expressing Sp5-Luc reporter, 10-point dose-response from 10 μM, 36 to 48 hours.
Experiment [2] relates to primary human mesenchymal stem cells (hMSCs). The experiment in a line: Chondrogenesis screening using primary human mesenchymal stem cells. It counts as cell-based. Conditions: hMSC chondrogenesis; for Emax: maximum activity relative to TGF-β3 (10 ng/mL) positive control, read-out: Max. Activity as % TGF-β3 activity; for EC50: concentration required to induce 50% levels of chondrogenesis with TGF-β3 as positive control, read-out: Conc (nM) of 50% TGF-β3 activity. An outline of the steps:
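Derived values are EC50 for 50% chondrogenesis, maximal activity and the dose giving it. These come from nodule area in passage 3–6 primary hMSCs, expressed as fold change over the mean of 3 same-plate DMSO wells, 2–3 replicates per concentration. TGF-β3 served as positive control.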

The mark [3] stands for this setting: Homo sapiens, Mesenchymal stem cells.

CLK2 kinase, sequence (P49760 whole entry): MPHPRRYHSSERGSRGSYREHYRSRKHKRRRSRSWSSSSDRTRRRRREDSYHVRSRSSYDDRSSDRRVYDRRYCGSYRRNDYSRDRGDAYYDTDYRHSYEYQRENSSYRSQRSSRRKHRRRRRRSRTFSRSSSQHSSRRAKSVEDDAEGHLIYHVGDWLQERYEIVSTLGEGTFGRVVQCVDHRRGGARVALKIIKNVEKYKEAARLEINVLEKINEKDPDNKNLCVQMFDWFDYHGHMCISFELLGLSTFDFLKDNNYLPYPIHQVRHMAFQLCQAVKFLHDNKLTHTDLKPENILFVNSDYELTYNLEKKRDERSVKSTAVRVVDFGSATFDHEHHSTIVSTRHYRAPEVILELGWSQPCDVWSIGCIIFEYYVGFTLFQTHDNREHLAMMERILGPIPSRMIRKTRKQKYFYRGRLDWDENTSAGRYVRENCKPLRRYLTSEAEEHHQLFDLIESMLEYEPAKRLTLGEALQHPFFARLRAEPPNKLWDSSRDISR

As for `c1ncc(-c2ccc3[nH]nc(-c4cc5c(-c6ccoc6)nccc5[nH]4)c3c2)cn1` [compound 505], the figures for the EC50 (on CLK2 kinase; on CLK3 kinase; in experiment [1]) were 4 nM, 217 nM and 1910 nM, respectively. In addition, the Emax in experiment [2] (setting [3]) came to 40.2%.
As for `CC(C)Nc1cncc(-c2ccc3[nH]nc(-c4nc5c(-c6ccoc6)nccc5[nH]4)c3n2)c1` [compound 238], the EC50 on CLK2 kinase was 2 nM; at CLK3 kinase, 230 nM; in experiment [1], 297 nM; in experiment [2] (setting [3]) it was 30 nM. For the same compound, the Emax in experiment [2] (setting [3]) turned out to be 76.2%.
As for `CN(C)Cc1cncc(-c2cnc3[nH]nc(-c4nc5c(-c6cccc(F)c6)cncc5[nH]4)c3c2)c1` [compound 137], the EC50 on CLK2 kinase came to 1 nM; on CLK3 kinase it was 7 nM; in experiment [1] it was 13 nM; in experiment [2] (setting [3]), 30 nM. In addition, the Emax in experiment [2] (setting [3]) was determined as 183%.
On to `FC1(F)CCN(Cc2cncc(-c3cnc4[nH]nc(-c5cc6c(-c7ccncc7)cncc6[nH]5)c4c3)c2)C1` [compound 402], for which the EC50 is 5 nM on CLK2 kinase, 110 nM at CLK3 kinase and 1510 nM in experiment [1]. Also, the Emax in experiment [2] (setting [3]) was 36.5%.
As for `CN(C)c1cncc(-c2ccc3[nH]nc(-c4nc5c(-c6cccc(F)c6)cncc5[nH]4)c3n2)c1` [compound 132], the EC50 on CLK2 kinase was 1 nM; on CLK3 kinase, 12 nM; in experiment [1] it was 638 nM; in experiment [2] (setting [3]), 10 nM. The Emax in experiment [2] (setting [3]) was 154%.
For the compound `CC(C)(C)C(=O)Nc1cncc(-c2ccc3[nH]nc(-c4nc5c(-c6ccc(Cl)s6)cncc5[nH]4)c3n2)c1` [compound 265], the EC50 on CLK2 kinase worked out at 8 nM; on CLK3 kinase, 91 nM; in experiment [1] it was 551 nM; in experiment [2] (setting [3]) it was 10 nM. Moreover, the Emax in experiment [2] (setting [3]) is 84.7%.
For `Fc1cccc(-c2cncc3[nH]c(-c4n[nH]c5ccc(-c6cncc(CN7CCC(F)(F)C7)c6)cc45)nc23)c1` [compound 141], the EC50 at CLK2 kinase is 9 nM; at CLK3 kinase, 33 nM; in experiment [1] it was 26.4 nM; in experiment [2] it was 30 nM. Also, the Emax in experiment [2] (setting [3]) is 102%.
Consider `CCCC(=O)Nc1cncc(-c2cc3c(-c4nc5c(-c6cccc(F)c6)nccc5[nH]4)n[nH]c3cn2)c1` [compound 122], for which the EC50 stood at 11 nM on CLK2 kinase, 6960 nM at CLK3 kinase, 18.8 nM in experiment [1] and 10 nM in experiment [2] (setting [3]). Besides, in experiment [2] (setting [3]), the Emax came out at 67.8%.
Regarding `CCNCc1cncc(-c2cnc3[nH]nc(-c4cc5c(-c6ccccc6F)cncc5[nH]4)c3c2)c1` [compound 334], the EC50 on CLK2 kinase came out at 2 nM; on CLK3 kinase, 89 nM; in experiment [1] it was 2300 nM. The Emax in experiment [2] (setting [3]) turned out to be 37.3%.
With `O=C(Nc1cncc(-c2ccc3[nH]nc(-c4cc5cccnc5[nH]4)c3c2)c1)C1CCCC1` [compound 429], the values for the EC50 (on CLK2 kinase; on CLK3 kinase; in experiment [1]) were 9 nM, 365 nM and 271 nM, respectively. Further, the Emax in experiment [2] (setting [3]) is 30.2%.
With `O=C(Nc1cncc(-c2cnc3[nH]nc(-c4cc5c(-c6ccccc6F)nccc5[nH]4)c3c2)c1)C1CC1` [compound 328], the EC50 at CLK2 kinase worked out at 6 nM; on CLK3 kinase, 47 nM; in experiment [1], 321 nM; in experiment [2] (setting [3]), 30 nM. In addition, the Emax in experiment [2] (setting [3]) was found to be 78.1%.
As to `O=C(Nc1cncc(-c2cnc3[nH]nc(-c4nc5c(-c6cccnc6)cncc5[nH]4)c3c2)c1)C1CCC1` [compound 191], the EC50 at CLK2 kinase was 3 nM; at CLK3 kinase, 49 nM; in experiment [1] it was 35.4 nM; in experiment [2] (setting [3]), 300 nM. Moreover, in experiment [2] (setting [3]), the Emax amounted to 130%.
For `CC(C)Nc1cncc(-c2cnc3[nH]nc(-c4cc5c(-c6ccccc6F)nccc5[nH]4)c3c2)c1` [compound 332], the EC50 on CLK2 kinase was determined as 6 nM; on CLK3 kinase it was 196 nM; in experiment [1] it was 435 nM; in experiment [2] (setting [3]), 10 nM. Further, the Emax in experiment [2] (setting [3]) came out at 75.8%.
With `CN1CCN(c2nccc3[nH]c(-c4n[nH]c5ncc(-c6cncc(NC(=O)C7CCCC7)c6)cc45)cc23)CC1` [compound 481], the values for the EC50 (at CLK2 kinase; at CLK3 kinase; in experiment [1]) were 9 nM, 741 nM and greater than 10000 nM, respectively. Moreover, in experiment [2] (setting [3]), the Emax worked out at 30.3%.
`FC1(F)CCN(Cc2cncc(-c3ccc4[nH]nc(-c5cc6c(N7CCCCC7)ccnc6[nH]5)c4n3)c2)C1` [compound 468]: the EC50 came out at 5 nM at CLK2 kinase, 166 nM at CLK3 kinase and 5270 nM in experiment [1]. The Emax in experiment [2] (setting [3]) is 37.6%.
Turning to `CCCCC(=O)Nc1cncc(-c2cnc3[nH]nc(-c4cc5cnccc5[nH]4)c3c2)c1` [compound 421], the EC50 was 3 nM at CLK2 kinase, 83 nM on CLK3 kinase and 1470 nM in experiment [1]. The Emax in experiment [2] (setting [3]) is 30.8%.
On to `c1cncc(-c2ccc3[nH]nc(-c4nc5c(-c6cccnc6)nccc5[nH]4)c3n2)c1` [compound 183], for which the EC50 at CLK2 kinase is 1 nM; at CLK3 kinase, 105 nM; in experiment [1] it was greater than 10000 nM; in experiment [2] (setting [3]), 100 nM. The Emax in experiment [2] (setting [3]) worked out at 70%.
As for `FC1(F)CCN(Cc2cncc(-c3cc4c(-c5cc6cccnc6[nH]5)n[nH]c4cn3)c2)C1` [compound 445], the EC50 was 5 nM on CLK2 kinase, 203 nM at CLK3 kinase and 1350 nM in experiment [1]. For the same compound, the Emax in experiment [2] (setting [3]) was 45.3%.
In the case of `CN(C)Cc1cncc(-c2cc3c(-c4nc5c(-c6cccc(F)c6)cccc5[nH]4)n[nH]c3cn2)c1` [compound 135], the EC50 at CLK2 kinase worked out at 4 nM; at CLK3 kinase it was 41 nM; in experiment [1] it was 82.2 nM; in experiment [2] (setting [3]) it was 100 nM. Also, in experiment [2] (setting [3]), the Emax came to 311%.
Turning to `CCCCC(=O)Nc1cncc(-c2cc3c(-c4cc5c(-c6cccnc6)ccnc5[nH]4)n[nH]c3cn2)c1` [compound 351], the EC50 at CLK2 kinase is 4 nM; at CLK3 kinase, 9840 nM; in experiment [1] it was greater than 10000 nM; in experiment [2] (setting [3]), 10 nM. For the same compound, the Emax in experiment [2] (setting [3]) amounted to 52.8%.
For the compound `c1cncc(-c2cnc3[nH]nc(-c4nc5c(-c6cccs6)cccc5[nH]4)c3c2)c1` [compound 254], the EC50 is 3 nM on CLK2 kinase, 43 nM on CLK3 kinase and 12 nM in experiment [1]. In addition, in experiment [2] (setting [3]), the Emax is 41.6%.
Consider `CN(C)Cc1cncc(-c2ccc3[nH]nc(-c4cc5c(-c6cccc(F)c6)cncc5[nH]4)c3c2)c1` [compound 309], for which the EC50 is 3 nM at CLK2 kinase, 37 nM at CLK3 kinase and 1280 nM in experiment [1]. In experiment [2] (setting [3]), the Emax was determined as 193%.
With `FC1(F)CCN(Cc2cncc(-c3cc4c(-c5nc6c(N7CCCCC7)cncc6[nH]5)n[nH]c4cn3)c2)C1` [compound 212], the EC50 at CLK2 kinase is 5 nM; at CLK3 kinase it was 89 nM; in experiment [1] it was 116 nM; in experiment [2] (setting [3]), 10 nM. Moreover, in experiment [2] (setting [3]), the Emax was found to be 100%.
Consider `Fc1ccc(-c2nccc3[nH]c(-c4n[nH]c5ccc(-c6cncc(CN7CCCC7)c6)cc45)cc23)cc1` [compound 315], for which the EC50 was 3 nM on CLK2 kinase, 139 nM on CLK3 kinase and 3620 nM in experiment [1]. Besides, the Emax in experiment [2] (setting [3]) stood at 98.5%.
In the case of `CC(C)CC(=O)Nc1cncc(-c2ccc3[nH]nc(-c4nc5c(-c6ccc(Cl)s6)cncc5[nH]4)c3n2)c1` [compound 266], the EC50 at CLK2 kinase amounted to 15 nM; on CLK3 kinase, 67 nM; in experiment [1], 1480 nM; in experiment [2] (setting [3]), 10 nM. For the same compound, the Emax in experiment [2] (setting [3]) turned out to be 60.6%.
